Reference: paper PMC9223267, “Serine hydroxymethyltransferase as a potential target of antibacterial agents acting synergistically with one-carbon metabolism-related inhibitors” (Communications Biology, 2022)
“And” between values parts separate entries of the source, which are not always exact repeats. Equal values may be shown once. “Also recorded” adds a separate entry of the source. Read-outs that look alike come from different tables or passages of the source.

What was measured:
E. faecalis = test: Antibacterial activity evaluation (turbidity, OD600); type: cell-based, Enterococcus faecalis (JCM7783); details: Enterococcus faecalis, E. faecalis JCM7783
Protocol: (§1) E. faecium and E. faecalis were diluted to turbidity equivalents that matched 1.0 McFarland (McF) standard in distilled water (S. aureus and E. coli were also diluted to 0.5 McF), and additionally diluted 1:200 in Mueller–Hinton (MH) broth. The designated concentrations of the tested compounds were prepared by ten-fold serial dilutions directly in 96-well microtiter plates (IWAKI, Shizuoka, Japan), as previously described. […] The other compounds were serially diluted from 20 μM downwards (final concentration, 10 μM). […] Positive control wells included bacteria without any compound, and the negative control wells only contained MH broth. […] The optical density at 600 nm (OD600) was measured using a GloMax microtiter plate reader (Promega, WI, USA), and the EC50 values of each test compound and standard error were calculated by Microsoft Excel function, AVERAGE and STDEV/SQRT.

E. faecium [1] = test: Bacterial viability assay (Microbial Viability Assay Kit-WST, OD450); type: cell-based, Enterococcus faecium; details: for Relative bacterial viability: single values
Protocol: Living E. faecium were determined using the Microbial Viability Assay Kit-WST (DOJINDO, Tokyo, Japan). […] Positive control wells included bacteria seeded into MH broth without compounds, and the negative control wells contained MH broth only. […] Five microlitres of the colouring reagent were added to each well of the 96-well plate every 2 h after starting incubation with each compound.

Caski cells = test: Cell cytotoxicity assay (Cell Counting Kit-8, 5 days); type: cell-based, human; details: with each cell line (Caski, Hep-2 and Calu-3)
Protocol: After serial dilution, 100 μL of FBS-containing medium including the cells was added to each well of the plate. […] All CC50 determining assays were conducted in duplicate or triplicate[39],[40].

efmSHMT [2] = type: binding, Enterococcus faecium; details: DSF; final drug concentration 50 μM
Protocol: Protein samples were prepared as 20 μL aliquots containing 0.1 mg/mL protein (efmSHMT/ecSHMT), 1 μL of the ligand in DMSO (final drug concentration, 50 μM) and 2% or 4% SYPRO Orange (Invitrogen, MA, USA). […] Melting points were evaluated as the half-point of the maximum intensity of each curve.

S. aureus = test: Antibacterial activity evaluation (turbidity, OD600); type: cell-based, Staphylococcus aureus (ATCC29213); details: Staphylococcus aureus, S. aureus ATCC29213
Protocol: as §1

E. faecium [3] = test: Antibacterial assay with an excess concentration of biomolecules (Ser, Gly, inosine, dT, FA); type: cell-based, Enterococcus faecium (JCM5804)
Protocol: as §1
The ratio of the control EC50 (no competitors added) to the experimental EC50 (competitors added) was calculated for each test substance.

efmSHMT [4] = target: efmSHMT (Enterococcus faecium, UniProt I3U4H4, M1V); test: biochemical; type: binding; details: 5 μM efmSHMT; 10 mM Gly and 100 μM Ser; Cheng-Prusoff
Sequence of efmSHMT (Enterococcus faecium, UniProt I3U4H4, M1V) (I3U4H4 whole entry M1V): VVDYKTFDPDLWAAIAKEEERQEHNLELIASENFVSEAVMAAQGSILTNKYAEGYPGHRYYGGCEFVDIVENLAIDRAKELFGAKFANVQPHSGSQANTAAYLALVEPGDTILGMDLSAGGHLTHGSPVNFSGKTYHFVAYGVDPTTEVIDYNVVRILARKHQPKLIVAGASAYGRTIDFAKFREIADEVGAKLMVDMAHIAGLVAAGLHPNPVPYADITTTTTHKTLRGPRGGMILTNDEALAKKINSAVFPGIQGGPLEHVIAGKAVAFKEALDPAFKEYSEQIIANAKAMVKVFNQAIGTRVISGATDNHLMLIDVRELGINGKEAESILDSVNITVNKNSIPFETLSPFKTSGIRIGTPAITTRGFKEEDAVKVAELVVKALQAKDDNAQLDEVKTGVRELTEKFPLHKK
Protocol: After adding Me-THF, the efmSHMT solution was incubated for 30 min at room temperature. The optical density at 500 and 600 nm (OD500 and OD600) were then measured using a nanodrop spectrophotometer[24],[25]. OD600 was used as the background. After detection, each concentration of inhibitor was added to the efmSHMT solution and incubated for 30 min at room temperature. OD500 and OD600 were measured. The relative OD500 intensity was calculated as relative OD500 = (OD500 – OD600)/(MAXOD500 – OD600), where MAXOD500 is the average OD500 value in the presence of 1000, 2000 and 4000 μM Me-THF without inhibitors. […] Here, IC50 is the concentration of inhibitor added to the efmSHMT solution and [Me-THF] is the EC50 in the presence of the inhibitor concentration. [EC50 without inhibitor] is the EC50 of Me-THF in the absence of the inhibitor.

E. faecium [5] = test: Antibacterial activity evaluation (turbidity, OD600); type: cell-based, Enterococcus faecium (JCM5804); details: Enterococcus faecium
Protocol: as §1

E. coli = test: as above; type: cell-based, Escherichia coli (ATCC25922); details: Escherichia coli, E. coli ATCC25922
Protocol: as §1

[6] = read-out: pEC50 ± S.E. (converted)
[7] = Enterococcus faecium, JCM5804, E. faecium JCM5804, 1 mM Inosine, read-out: EC50
[8] = Enterococcus faecium, JCM5804, E. faecium JCM5804, 1 mM Inosine, read-out: pEC50 ± S.E. (converted)
[9] = Enterococcus faecium, JCM5804, E. faecium JCM5804, 1 mM deoxythymidine, read-out: EC50
[10] = Enterococcus faecium, JCM5804, E. faecium JCM5804, 1 mM deoxythymidine, read-out: pEC50 ± S.E. (converted)
[11] = Enterococcus faecium, JCM5804, E. faecium JCM5804, 10 mM Glycine, read-out: EC50
[12] = Enterococcus faecium, JCM5804, E. faecium JCM5804, 10 mM Glycine, read-out: pEC50 ± S.E. (converted)
[13] = Enterococcus faecium, JCM5804, E. faecium JCM5804, 100 mM Serine, read-out: EC50
[14] = Enterococcus faecium, JCM5804, E. faecium JCM5804, 100 mM Serine, read-out: pEC50 ± S.E. (converted)
[15] = Enterococcus faecium, JCM5804, E. faecium JCM5804, 0.1 M folate, read-out: EC50
[16] = Enterococcus faecium, JCM5804, E. faecium JCM5804, 0.1 M folate, read-out: pEC50 ± S.E. (converted)

Compound	EC50 (E. faecalis; read-out: EC50) [µM]	EC50 (E. faecalis; [6]) [µM]	selectivity index (S.I.): CC50 against each cell line / EC50 against E. faecium (Caski cells)	ΔTm (thermal stability of efmSHMT) (efmSHMT [2])	EC50 (S. aureus; read-out: EC50) [µM]	EC50 (S. aureus; [6]) [µM]	EC50 (E. faecium [3]; [7]) [µM]	EC50 (E. faecium [3]; [8]) [µM]	EC50 (E. faecium [3]; [9]) [µM]	EC50 (E. faecium [3]; [10]) [µM]	EC50 (E. faecium [3]; [11]) [µM]	EC50 (E. faecium [3]; [12]) [µM]	EC50 (E. faecium [3]; [13]) [µM]	EC50 (E. faecium [3]; [14]) [µM]	EC50 (E. faecium [3]; [15]) [µM]	EC50 (E. faecium [3]; [16]) [µM]	Ki (efmSHMT [4])	EC50 (E. coli; read-out: EC50) [µM]	EC50 (E. coli; [6]) [µM]	also measured
Cc1n[nH]c2c1C(c1cc(N3CCCC3)cc(C(F)(F)F)c1)(C(C)C)C(C#N)=C(N)O2 (centres unmarked) [SHMT-IN-2]	> 100	> 100	less selective than (+)-SHIN-1, TMP and PMX	did not stabilise efmSHMT significantly	≥ 100	≥ 100	3.1	3.16	2.9	3.16	3	3.16	4	3.98	2.9	3.16	did not change the OD500; also recorded: did not bind	> 100	> 100	Relative bacterial viability (E. faecium [1]; 40 μM, 0 hours): 0.01862 and 0.0174 and 0.0205 and 0.01931 and 0.02646 and 0.02349 and 0.02966 and 0.03101; Relative bacterial viability (E. faecium [1]; 40 μM, 2 hours): 0.03093 and 0.0302 and 0.02505 and 0.02814 and 0.02877 and 0.02998 and 0.036 and 0.03921; Relative bacterial viability (E. faecium [1]; 40 μM, 6 hours): 0.3579 and 0.3453 and 0.3941 and 0.3482 and 0.392 and 0.3797 and 0.4394 and 0.4307; Relative bacterial viability (E. faecium [1]; 40 μM, 8 hours): 0.4949 and 0.5317 and 0.4381 and 0.3998 and 0.3519 and 0.3235 and 0.4823 and 0.3754; Relative bacterial viability (E. faecium [1]; 40 μM, 10 hours): 0.5237 and 0.542 and 0.4699 and 0.39 and 0.5132 and 0.4488 and 0.4691 and 0.4904; Relative bacterial viability (E. faecium [1]; 40 μM, 12 hours): 0.55 and 0.5489 and 0.5001 and 0.5313 and 0.5571 and 0.5294 and 0.6254 and 0.5482; Relative bacterial viability (E. faecium [1]; 80 μM, 0 hours): 0.02012 and 0.02269 and 0.02791 and 0.02552 and 0.02349 and 0.02305 and 0.03984 and 0.03245; Relative bacterial viability (E. faecium [1]; 80 μM, 2 hours): 0.03305 and 0.03431 and 0.03897 and 0.0377 and 0.0302 and 0.03755 and 0.04307 and 0.03606; Relative bacterial viability (E. faecium [1]; 80 μM, 4 hours): 0.03849 and 0.03773 and 0.03537 and 0.04204 and 0.0354 and 0.0391 and 0.04337 and 0.03653; Relative bacterial viability (E. faecium [1]; 80 μM, 6 hours): 0.04463 and 0.04595 and 0.05326 and 0.05339 and 0.04373 and 0.04075 and 0.04467 and 0.04119; Relative bacterial viability (E. faecium [1]; 80 μM, 8 hours): 0.04711 and 0.04935 and 0.05233 and 0.0524 and 0.04018 and 0.04838 and 0.04621 and 0.04757; Relative bacterial viability (E. faecium [1]; 80 μM, 10 hours): 0.04986 and 0.05353 and 0.04783 and 0.04892; Relative bacterial viability (E. faecium [1]; 80 μM, 12 hours): 0.04784 and 0.03996 and 0.04751 and 0.04436 and 0.04726 and 0.03481 and 0.04716 and 0.0494; EC50 (bacterial viability) (E. faecium [1]; relative bacterial viability after 14 h incubation): weaker activity than the turbidity detection result; EC50 (E. faecium [3]; E. faecium JCM5804, 0.1 M folate): independent of FA; EC50 (E. faecium [5]; E. faecium JCM5804, read-out: EC50): 2.9 µM; EC50 (E. faecium [5]; E. faecium JCM5804, read-out: pEC50 ± S.E. (converted)): 3.16 µM
CN(Cc1cnc2nc(N)nc(N)c2n1)c1ccc(C(=O)N[C@@H](CCC(=O)O)C(=O)O)cc1 [MTX, methotrexate]	14	15.8	less selective than (+)-SHIN-1, TMP and PMX	did not stabilise efmSHMT significantly	> 100	> 100	0.0024	0.00251	> 100	> 100	0.0028	0.00251	0.0026	0.00251	8.5	7.94	did not change the OD500; also recorded: did not bind	> 100	> 100	Relative bacterial viability (E. faecium [1]; 2 nM, 0 hours): 0.02233 and 0.0177 and 0.02678 and 0.02266 and 0.01761 and 0.017 and 0.0195 and 0.01799; Relative bacterial viability (E. faecium [1]; 2 nM, 2 hours): 0.03007 and 0.03198 and 0.04012 and 0.03501 and 0.02569 and 0.02735 and 0.02947 and 0.02784; Relative bacterial viability (E. faecium [1]; 2 nM, 6 hours): 0.8015 and 0.7552 and 0.8948 and 0.8943 and 0.5687 and 0.5754 and 0.5661 and 0.5425; Relative bacterial viability (E. faecium [1]; 2 nM, 8 hours): 0.6487 and 0.7535 and 0.8184 and 0.7635 and 0.7144 and 0.6621 and 0.6673 and 0.7812; Relative bacterial viability (E. faecium [1]; 2 nM, 10 hours): 0.7053 and 0.6673 and 0.7036 and 0.6902; Relative bacterial viability (E. faecium [1]; 2 nM, 12 hours): 0.8527 and 0.9211 and 0.863 and 0.9139 and 0.786 and 0.828 and 0.8102 and 0.8671; Relative bacterial viability (E. faecium [1]; 20 nM, 0 hours): 0.02944 and 0.02382 and 0.02242 and 0.01876 and 0.02362 and 0.02115 and 0.02309 and 0.02203; Relative bacterial viability (E. faecium [1]; 20 nM, 2 hours): 0.04282 and 0.03899 and 0.03091 and 0.03386 and 0.03007 and 0.02907 and 0.03321 and 0.0351; Relative bacterial viability (E. faecium [1]; 20 nM, 4 hours): 0.09761 and 0.08481 and 0.06333 and 0.08156 and 0.05837 and 0.05915 and 0.09197 and 0.0766; Relative bacterial viability (E. faecium [1]; 20 nM, 6 hours): 0.09779 and 0.1224 and 0.09629 and 0.09367 and 0.1125 and 0.1318 and 0.1324 and 0.1243; Relative bacterial viability (E. faecium [1]; 20 nM, 8 hours): 0.09766 and 0.1007 and 0.1109 and 0.1082 and 0.07161 and 0.0792 and 0.1047 and 0.1064; Relative bacterial viability (E. faecium [1]; 20 nM, 10 hours): 0.1166 and 0.1064 and 0.08667 and 0.1003 and 0.08673 and 0.1012 and 0.1144 and 0.09737; Relative bacterial viability (E. faecium [1]; 20 nM, 12 hours): 0.09054 and 0.1107 and 0.09534 and 0.1014 and 0.09177 and 0.09711 and 0.09672 and 0.1035; EC50 (E. faecium [1]; Enterococcus faecium, relative bacterial viability after 14 h incubation): 0.0084 µM; EC50 (E. faecium [5]; JCM5804, E. faecium JCM5804, read-out: EC50): 0.0036 µM; EC50 (E. faecium [5]; JCM5804, E. faecium JCM5804, read-out: pEC50 ± S.E. (converted)): 0.00398 µM
